Assay results from patent US8697837B2, “Substrate for Rpn 11 enzymatic activity” (Onyx Therapeutics, Inc., priority 2005, dated 2014).
One block for each compound: values may come before it. Where no end group is shown, it is not given here. Ub4 = N-terminal tetraubiquitin moiety

Key:
Rpn11 (26S proteasome) [1] = target: T1, Rpn11 (26S proteasome) (Homo sapiens, UniProt O00487); test: SDS-PAGE assay of Ub4-peptide substrate proteolysis by 26S proteasome; assay type: biochemical; conditions: for inhibition of proteolysis of the substrate Ub4-peptide(29) and Ub4-peptide-C14(29) by the 26S proteasome: FIG. 1, 60 nM 26S proteasome, 2 h 37 °C, 5 mM ATPγS, 1 mM OPA, 5 μM Ub-aldehyde, SDS-PAGE
T1 construct: To date, a recombinant form of Rpn11 has not been generated
Experimental: Each peptide substrate further comprises an N-terminal ubiquitin moiety that has 4 Ub repeats (Ub4). […] 2 μg of Ub4-peptide(29) or Ub4-peptide-C14(29) were incubated with 60 nM 26S proteasome in buffer B [50 mM Tris pH 8.0; 10 mM MgCl2; 1 mM DTT; 1 mM ATP] and where indicated 5 mM ATPγS, 1 mM O-phenanthroline (OPA) and 5 μM ubiquitin aldehyde (Ub-aldehyde) in a volume of 20 μl for 2 hours at 37° C. Reactions were stopped by adding 7.5 μl loading dye and boiled at 100° C. for 5 minutes. Reactions were then loaded on an SDS-PAGE gel, reaction products were separated by electrophoresis and bands were visualized with brilliant blue.
Each peptide substrate further comprises an N-terminal ubiquitin moiety that has 4 Ub repeats (Ub4).

[2] = target: T2, chymotryptic-like activity of the 20S proteasome (Homo sapiens, UniProt P20618+P28074); test: Example 2 screen: liberation of AMC from LLVY-AMC; assay type: biochemical; conditions: substrate LLVY-AMC; method of Example 2
T2 construct: 26S proteasome purified from humans and purchased from BioMol; purchased BioMol
Experimental: (§1) 4) 26S proteasome purified from humans and purchased from BioMol;
(§2) 5 μl of compound [30 μM compound in Buffer A+1% DMSO], 5 μl of substrate [30 nM Ub4-pep-C14(29)-Oregon Green and 15 μM LLVY-AMC in Buffer A] and 5 μl enzyme [1.5 nM 26S proteasomes] were mixed in a 384 well plates and incubated at 28° C. for 75 minutes. Reactions were stopped with the addition of […] 20S inhibitor (PR-171) and 4 mM EDTA. Processing of the 20S substrate LLVY-AMC to liberate AMC was determined by measuring the AMC fluorescence [excitation at 340 nm; emission at 465 nm]. Processing of the 19S substrate Ub4-pep-C14(29)-Oregon Green to liberate pep-C14(29)-Oregon Green was determined by measuring the fluorescence polarization of Oregon Green [excitation at 485 nm; emission at 535 nm].
Modulators of the 20S proteasome activity affect liberation of AMC from LLVY-AMC (second non-ubiquitinated substrate) and affect the chymotryptic-like activity of the 20S proteasome.

19S proteasome = test: Example 2 screen: liberation of pep-C14(29)-Oregon Green from Ub4-pep-C14(29)-Oregon Green (fluorescence polarization); assay type: biochemical, human; conditions: method of Example 2
Experimental: as §1, §2
Modulators of the 19S proteasome activity affect liberation of pep-C14(29)-Oregon Green from Ub4-pep-C14(29)-Oregon Green (first ubiquitinated substrate).

[3] = target: ubiquitin or polyubiquitin chains (Homo sapiens, UniProt P0CG48); conditions: cited from earlier work
Ub4-pep-C14(29) = test: Intrinsic fluorescence of ubistatin A on incubation with Ub4-pep-C14(29); assay type: binding; conditions: 2.5 μM ubistatin A with 2.5 μM Ub4-pep-C14(29); excitation 350 nm, emission 450 nm
Text: A test agent that binds ubiquitin can affect the binding of ubistatin A (C92) to Ub4-pep-C14(29). This can be determined by measuring the intrinsic fluorescence of ubistatin A (C92) [excitation at 350 nm; emission at 450 nm] with Ub4-pep-C14(29) in the presence or absence of a test agent, which is a competition assay between ubistatin A and the test agent for binding to the ubiquitin.

Rpn11 (26S proteasome) [4] = target: T1, Rpn11 (26S proteasome); test: High throughput fluorescence polarization assay of Ub4-peptide(29)-fluorescein proteolysis by 26S proteasome; assay type: biochemical; conditions: FIG. 5A/5B; 100 nM substrate, 10 nM 26S proteasome, 28 °C, various inhibitor concentrations
Experimental: Various concentrations (as indicated) of Ub4-peptide(29) coupled to Fluorescein-5-maleimide was incubated with 10 nM 26S proteasome in 50 mM Tris pH 8.0; 10 mM MgCl2; 1 mM DTT; 1 mM ATP at 28° C., and the liberation of peptide(29)-fluorescein was measured by fluorescence polarization (excitation at 485 nm; emission at 510 nm).
FIG. 5A illustrates a high throughput (HTP) FP assay that detects O-phenanthroline inhibition of Rpn11 activity. […] 100 nM Ub4-peptide coupled to fluorescein-5-maleimide was incubated with 10 nM 26S proteasome in 50 mM Tris pH 8.0; 10 mM MgCl2; 1 mM DTT; 1 mM ATP at 28° C. and the liberation of peptide was measured by fluorescence polarization (excitation at 485 nm; emission at 510 nm) in the presence of various concentrations of o-phenanthroline (as indicated).
FIG. 5B illustrates that Rpn11 enzymatic activity is unaffected by the presence of a 20S proteasome inhibitor in the HTP FP assay using a peptide substrate of the application. […] 100 nM Ub4-peptide coupled to fluorescein-5-maleimide was incubated with 10 nM 26S proteasome in 50 mM Tris pH 8.0; 10 mM MgCl2; 1 mM DTT; 1 mM ATP at 28° C. and the liberation of peptide was measured by fluorescence polarization (excitation at 485 nm; emission at 510 nm) in the presence of various concentrations of 20S proteasome inhibitor (as indicated).

Rpn11 = Rpn11 (Saccharomyces cerevisiae, UniProt P43588); conditions: purified 26S proteasome complex; cited from earlier work
Rpn11, sequence (P43588 whole entry): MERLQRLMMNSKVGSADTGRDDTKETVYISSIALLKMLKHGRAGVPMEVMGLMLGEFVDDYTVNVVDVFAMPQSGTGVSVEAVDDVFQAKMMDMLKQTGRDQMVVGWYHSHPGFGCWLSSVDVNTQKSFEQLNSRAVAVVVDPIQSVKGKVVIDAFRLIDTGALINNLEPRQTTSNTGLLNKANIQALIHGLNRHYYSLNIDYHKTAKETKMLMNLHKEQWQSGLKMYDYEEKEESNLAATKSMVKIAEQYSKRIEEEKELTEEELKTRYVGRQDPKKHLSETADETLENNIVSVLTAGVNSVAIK

[5] = FIG. 2, 60 nM 26S proteasome from source A
[6] = FIG. 2, 60 nM 26S proteasome from source B

Compound: Nc1ncnc2c1ncn2[C@@H]1O[C@H](COP(=O)(O)OP(=O)(O)OP(O)(O)=S)[C@@H](O)[C@H]1O [ATPγS]
inhibition of proteolysis of the substrate Ub4-peptide(29) and Ub4-peptide-C14(29) by the 26S proteasome (Rpn11 (26S proteasome) [1]): inhibited | inhibition of proteolysis of the substrate Ub4-peptide-C14(14) (Rpn11 (26S proteasome) [1]; [5]): inhibited | inhibition of proteolysis of the substrate Ub4-peptide-C14(14) (Rpn11 (26S proteasome) [1]; [6]): not

Compound: O=C(c1ccc(CSc2ccc(-c3ccc(-c4ccccc4)cc3)nn2)o1)N1CCCC1 [Compound 4]
processing of the substrate Ub4-pep-C14(29)-Oregon Green by the 19S proteasome (19S proteasome): prevents

Compound: O=C(Nc1ccc(/C=C/c2ccc(NC(=O)c3cc(S(=O)(=O)O)c4cccnc4c3O)cc2S(=O)(=O)O)c(S(=O)(=O)O)c1)c1cc(S(=O)(=O)O)c2cccnc2c1O [Ubistatin A]
intrinsic fluorescence detected from Compound 92 on binding to a protein substrate [3]: increases | intrinsic fluorescence of ubistatin A (C92) (Ub4-pep-C14(29)): increases several fold

Compound: Ub4-peptide-C14(14): peptide of SEQ ID NO:15 with S14 changed to C14 and an N-terminal Ub4 moiety; Rpn11 substrate (Ub4-MQIFVKTLRANSSC)
effect of changing S14 to C14 on substrate's ability to be recognized and cleaved by Rpn11 (Rpn11 (26S proteasome) [1]; FIG. 2, SEQ ID NO:15, N-terminal Ub4): does not alter

Compound: ubiquitin vinylsulphone
sensitivity of the deubiquitinating activity associated with Rpn11 (Rpn11): insensitivity

Second part, led by results:

effect on the chymotryptic-like activity of the 20S proteasome [2]: affect
Compound: COc1cccc(OC)c1C(=O)N1CCC(c2nc(-c3ccc(Br)cc3)no2)CC1 [Compound 1]

effect on the chymotryptic-like activity of the 20S proteasome [2]: affect
Compound: COc1cccc(OC)c1C(=O)N1CCC(c2nc(-c3ccc(C)cc3)no2)CC1 [Compound 2]

effect on the chymotryptic-like activity of the 20S proteasome [2]: affect
Compound: CC(C)c1cc(OC(=O)c2cc(C(F)(F)F)cc(C(F)(F)F)c2)n(-c2ccc([N+](=O)[O-])cc2)n1 [Compound 3]

inhibition of proteolysis of the substrate Ub4-peptide(29) and Ub4-peptide-C14(29) by the 26S proteasome (Rpn11 (26S proteasome) [1]): inhibited | inhibition of proteolysis of the substrate Ub4-peptide-C14(14) (Rpn11 (26S proteasome) [1]; [5]): inhibited | inhibition of proteolysis of the substrate Ub4-peptide-C14(14) (Rpn11 (26S proteasome) [1]; [6]): not | effect on kinetics of Ub4-peptide(29)-fluorescein proteolysis by the 26S proteasome (Rpn11 (26S proteasome) [4]): affects
Compound: c1cnc2c(c1)ccc1cccnc12 [o-phenanthroline, 1,10-phenanthroline]

inhibition of proteolysis of the substrate Ub4-peptide(29) and Ub4-peptide-C14(29) by the 26S proteasome (Rpn11 (26S proteasome) [1]): not
Compound: ubiquitin aldehyde
sensitivity of the deubiquitinating activity associated with Rpn11 (Rpn11): insensitivity
